Values after ≈ are worked out from the molar mass of the structure shown. Each block holds one compound with its values, some of them ahead of it.
Legend:
Experiment in all cases: ≥ marks a high value that may be exact or a test limit, other limits are often not marked, values filed in µg/mL are converted to µM
[1] = tested on: Candida albicans CGMCC 2.2086
[2] = tested on: Staphylococcus aureus ATCC 43300
[3] = tested on: Escherichia coli K88
[4] = tested on: Candida tropicalis CGMCC 2.1975
[5] = tested on: Candida parapsilosis CGMCC 2.3989
[6] = tested on: Salmonella enterica subsp. enterica serovar Pullorum ATCC 7913
[7] = tested on: Staphylococcus aureus ATCC 25923
[8] = tested on: Escherichia coli 078
[9] = tested on: Escherichia coli K99
[10] = tested on: Pseudomonas aeruginosa ATCC 27853
[11] = tested on: Salmonella enterica subsp. enterica serovar Typhimurium ATCC 14028
[12] = tested on: Escherichia coli UB1005
[13] = tested on: Salmonella enterica subsp. enterica serovar Typhimurium C77-31
[14] = tested on: Staphylococcus epidermidis ATCC 12228
[15] = tested on: Escherichia coli K12 MG1655
[16] = tested on: Escherichia coli INV-a
[17] = tested on: Lactococcus lactis MG1363
[18] = tested on: Escherichia coli
[19] = tested on: Salmonella enterica subsp. enterica serovar Infantis
[20] = tested on: Salmonella enterica subsp. enterica serovar Enteritidis MH91989
[21] = tested on: Salmonella typhimurium SL1344
[22] = tested on: Escherichia coli JJ2489
[23] = tested on: Escherichia coli J2210
[24] = tested on: Escherichia coli MC1041
[25] = tested on: Escherichia coli JW0013
[26] = tested on: Salmonella enterica subsp. enterica serovar Newport
[27] = tested on: Escherichia coli JW0368 ΔsbmA
[28] = tested on: Salmonella enterica serovar Tennessee
[29] = tested on: Escherichia coli BW25113
[30] = tested on: Escherichia coli JW2778 ΔygdD
[31] = tested on: Porphyromonas gingivalis W50
[32] = tested on: Escherichia coli DH5alpha
[33] = tested on: Pseudomonas aeruginosa PAO1
[34] = tested on: Lacticaseibacillus rhamnosus 1.9021
[35] = tested on: Lacticaseibacillus rhamnosus 1.0911
[36] = tested on: Lacticaseibacillus rhamnosus 8014
[37] = tested on: Streptococcus agalactiae BNCC 185941
[38] = tested on: Lacticaseibacillus rhamnosus 1.0936
[39] = tested on: Escherichia coli O157:H7 CICC 21530
[40] = tested on: Escherichia coli ATCC 25922
[41] = tested on: Salmonella enterica subsp. enterica serovar Pullorum C79-13
[42] = tested on: Staphylococcus aureus ATCC 29213
[43] = tested on: Salmonella enterica subsp. enterica serovar Choleraesuis CVCC 503
[44] = tested on: Listeria monocytogenes KCTC 19111
[45] = tested on: Staphylococcus epidermidis KCTC 1917
[46] = tested on: Salmonella typhimurium KCTC 1926
[47] = tested on: Pseudomonas aeruginosa ATCC 15692

- MIC [1]: ≥ 128 µM
- MIC [2]: 16 µM (≈ 21.9 µg/mL)
- MIC [3]: 4 µM (≈ 5.49 µg/mL)
- MIC [4]: ≥ 32 µM
- MIC [5]: ≥ 64 µM
- MIC [6]: 8 µM (≈ 11 µg/mL)
- MIC [7]: 16 µM (≈ 21.9 µg/mL)
- MIC [8]: 4 µM (≈ 5.49 µg/mL)
- MIC [9]: 4 µM (≈ 5.49 µg/mL)
- MIC [10]: > 128 µM
- MIC [11]: 16 µM (≈ 21.9 µg/mL)
- MIC [12]: 4 µM (≈ 5.49 µg/mL)
- MIC [13]: 16 µM (≈ 21.9 µg/mL)
- MIC [14]: 16 µM (≈ 21.9 µg/mL)
SMILES: CC[C@H](C)[C@H](NC(=O)[C@H](CCCN=C(N)N)NC(=O)[C@H](C)NC(=O)[C@H](C)N)C(=O)N[C@H](C(=O)N[C@@H](CC(C)C)C(=O)N[C@@H](CCCN=C(N)N)C(=O)N[C@H](C(=O)N[C@@H](CCCN=C(N)N)C(=O)N[C@@H](Cc1ccccc1)C(=O)N[C@@H](CCCN=C(N)N)C(N)=O)[C@@H](C)O)[C@@H](C)CC [AARIILRTRFR]

- MIC [15]: ≥ 73.3 µM
SMILES: CC[C@H](C)[C@H](NC(=O)[C@H](CCCCN)NC(=O)[C@H](CCCCN)NC(=O)[C@@H](NC(=O)[C@@H](NC(=O)[C@H](CCCN=C(N)N)NC(=O)[C@H](CCCCN)NC(=O)[C@H](CCC(=O)O)NC(=O)CNC(=O)[C@H](C)N)[C@@H](C)CC)[C@@H](C)CC)C(=O)N[C@@H](CC(=O)O)C(=O)N[C@@H](CCC(=O)O)C(=O)N[C@@H](C)C(=O)N[C@@H](Cc1ccccc1)C(=O)N[C@@H](CCC(N)=O)C(=O)O [AGEKRIIKKIDEAFQ]

- MIC [16]: ≥ 33 µM
- MIC [17]: 18 µM (≈ 27.3 µg/mL)
SMILES: CC[C@H](C)[C@H](NC(=O)CNC(=O)[C@H](CCCCN)NC(=O)[C@H](Cc1c[nH]c2ccccc12)NC(=O)[C@H](CC(N)=O)NC(=O)[C@H](C)N)C(=O)N[C@@H](C)C(=O)N[C@@H](C)C(=O)N[C@@H](CCSC)C(=O)N[C@@H](C)C(=O)N[C@@H](CCCCN)C(=O)N[C@@H](CCCCN)C(=O)N[C@@H](CC(C)C)C(=O)N[C@@H](CC(C)C)C(N)=O [ANWKGIAAMAKKLL]

- MIC [18]: 0.048 µM (≈ 0.101 µg/mL)
- MIC [19]: 0.024 µM (≈ 0.0503 µg/mL)
- MIC [20]: 0.031 µM (≈ 0.065 µg/mL)
- MIC [21]: 0.034 µM (≈ 0.0712 µg/mL)
- MIC [22]: 0.031 µM (≈ 0.065 µg/mL)
- MIC [23]: 0.034 µM (≈ 0.0712 µg/mL)
- MIC [24]: 0.024 µM (≈ 0.0503 µg/mL)
- MIC [25]: 0.012 µM (≈ 0.0251 µg/mL)
- MIC [26]: 0.024 µM (≈ 0.0503 µg/mL)
- MIC [27]: 0.096 µM (≈ 0.201 µg/mL)
- MIC [28]: 0.024 µM (≈ 0.0503 µg/mL)
- MIC [29]: 0.017 µM (≈ 0.0356 µg/mL)
- MIC [30]: 0.024 µM (≈ 0.0503 µg/mL)
SMILES: CC(C)C[C@H](NC(=O)[C@H](CCCN=C(N)N)NC(=O)[C@@H]1CCCN1C(=O)[C@H](Cc1cnc[nH]1)NC(=O)[C@@H]1CCCN1C(=O)[C@@H]1CCCN1C(=O)[C@H](CCCN=C(N)N)NC(=O)[C@@H]1CCCN1C(=O)[C@H](CCC(N)=O)NC(=O)[C@@H]1CCCN1C(=O)[C@H](CCCCN)NC(=O)[C@H](Cc1ccc(O)cc1)NC(=O)[C@@H](NC(=O)[C@@H]1CCCN1C(=O)[C@H](CCCCN)NC(=O)[C@H](CC(N)=O)NC(=O)[C@H](CC(N)=O)NC(=O)CN)C(C)C)C(=O)O [GNNKPVYKPQPRPPHPRL]

- MIC [31]: ≥ 119 µM
- MIC [32]: ≥ 143 µM
- MIC [33]: > 119 µM
SMILES: CC[C@H](C)[C@H](NC(=O)[C@H](CCC(N)=O)NC(=O)CN)C(=O)N[C@H](C(=O)N[C@@H](CC(N)=O)C(=O)N[C@@H](CC(C)C)C(=O)N[C@@H](CCCCN)C(=O)N[C@@H](C)C(=O)N[C@@H](CO)C(=O)N[C@@H](CC(C)C)C(=O)N[C@@H](CC(=O)O)C(=O)N[C@@H](CC(C)C)C(=O)N[C@@H](CC(C)C)C(N)=O)[C@@H](C)CC [GQIINLKASLDLL]

- MIC [34]: ≥ 128 µM
- MIC [2]: > 128 µM
- MIC [3]: ≥ 128 µM
- MIC [35]: ≥ 128 µM
- MIC [36]: ≥ 128 µM
- MIC [37]: ≥ 128 µM
- MIC [10]: > 128 µM
- MIC [38]: ≥ 128 µM
- MIC [11]: > 128 µM
- MIC [39]: ≥ 128 µM
- MIC [40]: > 128 µM
- MIC [14]: > 128 µM
- MIC [41]: ≥ 128 µM
- MIC [33]: > 128 µM
- MIC [42]: > 128 µM
SMILES: CC(C)C[C@H](NC(=O)CNC(=O)[C@H](Cc1c[nH]c2ccccc12)NC(=O)CNC(=O)[C@H](CC(C)C)NC(=O)[C@H](CCCCN)NC(=O)[C@@H](N)CCCCN)C(=O)N[C@@H](CCCCN)C(=O)N[C@@H](CCCCN)C(N)=O [KKLGWGLKK]
- MIC [43]: ≥ 128 µM

- MIC [7]: 64 µM (≈ 97 µg/mL)
- MIC [44]: 8 µM (≈ 12.1 µg/mL)
- MIC [45]: 8 µM (≈ 12.1 µg/mL)
- MIC [46]: 16 µM (≈ 24.3 µg/mL)
- MIC [40]: 4 µM (≈ 6.06 µg/mL)
- MIC [47]: 4 µM (≈ 6.06 µg/mL)
SMILES: NCCCC[C@H](NC(=O)CNC(=O)[C@H](Cc1c[nH]c2ccccc12)NC(=O)[C@H](CCCCN)NC(=O)[C@H](CCCCN)NC(=O)CNC(=O)[C@H](Cc1c[nH]c2ccccc12)NC(=O)[C@H](CCCCN)NC(=O)[C@H](CCCCN)NC(=O)CNC(=O)[C@H](Cc1c[nH]c2ccccc12)NC(=O)[C@@H](N)CCCCN)C(N)=O [KWGKKWGKKWGK]

Reference: DBAASP
